Measurements from US20080171794A1, “HUMECTANT COMPOSITION” (TAKASAGO INTERNATIONAL CORPORATION, priority 2007, published 2008).

System: inside of the forearm
Experiment: Skin conductance with time after water supply to the site treated with emollient milk
Assay type: in vivo, human
Settings: conclusion from Tables 5 and 6; conductance on forearm after water supply
Description: Each of the emollient milks described in Table 3 was applied to the inside of the forearm in the same manner in Test Example 2, and dried for 30 minutes. A drop of distilled water was placed on that site to conduct water supply for 10 seconds, followed by wiping off. Then, the conductance values were measured with time for 15 minutes (n=3).
Process: Emollient milks having the same components as described in Table 3 with the exception that 3-(menthoxy)propane-1,2-diol was substituted by p-menthane-3,8-diol were prepared (Example 3 and Comparative Example 3). Each was applied to the inside of the forearm in an amount of 65 mg/cm^2, and evaluated in the same manner as in Test Example 3.

CC1CCC(C(C)(C)O)C(O)C1 (stereo not shown) [p-menthane-3,8-diol]
water-retention function (in words): excellent water-retention function
